Experimental data taken from patent US20230014352A1, “INHALED STATINS AS BRONCHODILATORS TO IMPROVE LUNG FUNCTION IN RESPIRATORY DISEASES” (priority 2019, published 2023).
“Also recorded” adds a separate entry of the source. Where two headings read alike, the source gives them in different places.

Tests used:
[1] = system: primary human airway smooth muscle (ASM) cells; experiment: Contractile force screening (CFS), basal ASM cell contraction (strain energy); format: cell-based; settings: for strain energy (ASM contraction) / basal ASM cell contraction: 24 hours; for strain energy (ASM contraction): compared to pravastatin, FIG. 1C; for basal ASM cell contraction: FIG. 1A/1D
Protocol: Primary human airway smooth muscle (ASM) cells derived from both non-asthmatic and asthmatic donors were obtained from the Gift of Hope Organ and Tissue Donor Network. These cells have been well-characterized previously (see for example H. Yoshie et al., Biophys J (2018) 114(9):2194-99). All measurements were performed using cells at passage 5-8 from three non-asthmatic donors. Cells were grown on either 10% serum-containing F12 complete media, or serum-deprived media supplemented with insulin, transferrin, and selenium (Corning, Tewksbury, Mass.). Contractile Force Screening: Human ASM cells were grown to confluence in 96-well plates on custom NuSilTM 8100 elastic substrates (Avantor, Inc., Radnor, Pa.) (R. […] Fluorescent beads (diameter 400 nm) were embedded in the substrate surface to enable traction force calculations based on their displacements. To measure fractions, an inverted epi-fluorescence microscope (DMI 6000B, Leica Inc., Germany) equipped with a heated chamber (37° C.), a monochrome camera ([…]), and a motorized stage was used. Spatial images were recorded of substrate-embedded fluorescent beads at 10× magnification. Based on the bead displacements (resolution 15 μm) relative to a cell-free model, together with knowledge of substrate stiffness and thickness, fractions were computed using the approach of Fourier Transform Traction Cytometry ([…] et al., Pharmacol Ther (2014) 143(1):87-110), modified to the case of cell monolayers ([…] et al., Cell (2007) 129(3):511-22). From each fraction map, the root-mean-squared traction (RMST) value and strain energy were calculated and reported as a measure of normal contraction in the monolayer. On a well-by-well basis, the ratio of the strain energy after vs. before treatment was computed, and all values of a given treatment group were normalized to the mean of each treatment group. Comparison of Statins: […] MA is the immediate product of HMGCR action on HMB-CoA, so addition of MA would reverse the effect of statin inhibition of HMGCR. […] Simvastatin-acid (SA), atorvastatin, pravastatin, and pitavastatin were examined with CFS to determine the dose response of the ASM relaxation effect. […] From each ASM force map, the strain energy (i.e., the energy that is imparted to the substrate by the contractile cells, in pJ) was computed, to represent the average cellular contraction.

ASM cells [2] = experiment: Simulated deep breath (stretch-unstretch), cell mapping rheometry and CFS; format: cell-based, human; settings: 10 μM, 30 min
Protocol: Well-defined biaxial stretch (4 sec duration, 10% magnitude) was imposed using the method of cell mapping rheometry. The strain energy from each ASM force map was computed as a metric of average cellular contraction, and reported as fold changes to the pre-stretch baseline value.
Normal ASM was treated with pitavastatin (1 μM, 24 hrs, n=7), isoproterenol (10 μM, 30 min, n=6) or vehicle (n=7), and examined by CFS as described above. […] Shown are contraction values normalized to the untreated control group. […] The contraction force gradually recovered over 180 seconds. […] All data are reported as mean and standard error of the mean (SEM).

[3] = system: precision-cut human lung slices; experiment: Histamine-induced bronchoconstriction in precision-cut human lung slices, pitavastatin and isoproterenol; settings: 30 μM for 30 min after histamine 10 μM 15 min; FIG. 13
Protocol: The experiment was performed under serum-deprived media conditions, n=3-7 airways per group. Changes in lumen narrowing were reported as percentage changes (±SEM) of the pre-treatment state (see FIG. 13). The absolute value of lumen airway area was not statistically different between the pitavastatin and control groups at the pre-treatment state.

ASM cells [4] = experiment: RealTime-Glo Annexin V Apoptosis and Necrosis assay; format: cell-based, human
Protocol: Lack of apoptosis: Some studies have shown that statins at high enough doses can reduce the viability of vascular smooth muscle cells, epithelial cells, and endothelial cells (S. Ghavami et al., Biochim Biophys Acta (2014) 1843(7):1259-71; T. P. Miettinen et al., Cell Rep (2015) 13(11):2610-20).
RealTime-Glo™ Annexin V Apoptosis and Necrosis assay was performed by growing ASM cells on 96-well white cell culture plate according to the manufacturer's instructions (Promega Inc). […] In this real-time annexin V binding assay, the luminescence signal was detected for apoptosis and necrosis was detected with a fluorescence signal by using a SpectraMax® plate reader. […] (20 μg/mL) was used as a positive control (FIG. 2).

[5] = Tissue distribution of inhaled (nebulized) simvastatin, mass spectrometry; settings: day 12, organs collected after euthanasia

## CC(C)c1c(C(=O)Nc2ccccc2)c(-c2ccccc2)c(-c2ccc(F)cc2)n1CC[C@@H](O)C[C@@H](O)CC(=O)O [atorvastatin]
[1]; 2 and 10 μM
  strain energy (ASM contraction): significantly (and further) reduce strain energy

## CC(C)NCC(O)c1ccc(O)c(O)c1 (centres unmarked) [isoproterenol]
ASM cells [2]; FIG. 12A
  basal ASM contraction compared to untreated controls: significantly inhibited basal ASM contraction
ASM cells [2]; FIG. 12B
  augmentation of stretch-induced ASM force relaxation: not conferred; also recorded: notably absent
[3]
  histamine (Hist)-induced bronchoconstriction: reduced

## CC[C@H](C)C(=O)O[C@H]1C[C@H](O)C=C2C=C[C@H](C)[C@H](CC[C@@H](O)C[C@@H](O)CC(=O)O)[C@H]21 [pravastatin]
ASM cells [4]
  apoptosis and necrosis (cell death): no evidence of apoptosis or cell death
[1]; 0.4 μM
  strain energy (ASM contraction): no effect

## CC(C)c1nc(N(C)S(C)(=O)=O)nc(-c2ccc(F)cc2)c1/C=C/[C@@H](O)C[C@@H](O)CC(=O)O [rosuvastatin]
ASM cells [4]
  apoptosis and necrosis (cell death): no evidence of apoptosis or cell death
[1]; 1 μM
  basal ASM cell contraction: little to no effect

## CCC(C)(C)C(=O)O[C@H]1C[C@@H](C)C=C2C=C[C@H](C)[C@H](CC[C@@H](O)C[C@@H](O)CC(=O)O)[C@H]21 [simvastatin acid]
[1]; primary ASM cells from three different human donors, FIG. 3
  dose-dependent effect on ASM: dose-dependently relax ASM
[1]; time-dependent effects, FIG. 4C
  start of ASM relaxing effects: 4 h

## CCC(C)(C)C(=O)O[C@H]1C[C@@H](C)C=C2C=C[C@H](C)[C@H](CC[C@@H]3C[C@@H](O)CC(=O)O3)[C@H]21 [simvastatin]
ASM cells [4]; statin doses tested, FIGS. 2B-E
  apoptosis and necrosis (cell death): no evidence of apoptosis or cell death
[1]; 1 μM
  basal ASM cell contraction: more potent
[1]; 1 μM, serum-deprived media, FIG. 10B
  ASM contraction over time compared to control: reduced ASM contraction time-dependently
[5]
  tissue distribution: mostly present in the mainstem bronchi and the lower lobes
